The record followed here is patent US20190016689A1, “NOVEL FLUORINATED QUINAZOLINE DERIVATIVES AS EGFR INHIBITORS” (TRILLIUM THERAPEUTICS INC., priority 2016, published 2019).

Molecules are shown by their SMILES.

One data set deals with P-gp. Description: in vitro. The note with it: human, Caco-2, pH 7.4. Here is the method: At this stage of growth, cell monolayers were fully polarized and differentiated.
The permeability assay buffer was Hanks Balanced Salt Solution containing 10 mM HEPES and 15 mM glucose at a pH of 7.4. The dosing buffer contained 5 μM metoprolol (positive control), 5 μM atenolol (negative control) and 100 μM lucifer yellow. The buffer in the receiver chamber also contained 1% bovine serum albumin (BSA). The dosing solution concentration was 5 μM in the assay buffer. Digoxin (20 μM) was used as Pgp substrate control.
The known Pgp inhibitor was co-dosed at 50 μM with compound at 5 μM.
Cell monolayers were dosed on the apical side (A-to-B) or basolateral side (B-to-A) and incubated at 37° C. in a shaker (65 rpm). Samples were taken from the donor and receiver chambers at 120 minutes. Each determination was performed in duplicate.
Narrow-window mass extraction LC/MS analysis was performed for all samples from this study using a Waters Xevo quadrupole time-of-flight (QTof) mass spectrometer, to determine relative peak areas of parent compound. The percent of transported drug was calculated based on these peak areas, relative to the initial, dosing concentration.

The test system of the next data set is hepatocytes. Briefly: Metabolic stability (hepatocytes). Format: in vitro ADME. The settings on record: 1 μM. Here is the method: a) Place incubation medium (William's E Medium supplemented with GlutaMAX) and hepatocyte thawing medium in a 37° C. water bath, and allow warming for at least 15 minutes prior to use. b) Remove a vial of cryopreserved hepatocytes from storage, ensuring that vials remain at cryogenic temperatures until thawing process ensues. Thaw the cells by placing the vial in a 37° C. water bath and gently shaking the vials for 2 minutes. After thawing is completed, spray vial with 70% ethanol, transfer the vial to a biosafety cabinet. c) Use wide-bore pipette tip to transfer hepatocytes into 50 mL conical tube containing thawing medium. Place the 50 mL conical tube into a centrifuge and spin at 100 g for 10 minutes. Upon completion of spin, aspirate thawing medium and resuspend hepatocytes in enough incubation medium to yield ˜1.5×10^6 cells/mL. d) Using a Trypan Blue exclusion, count cells and determine the viable cell density. Cells with poor viability (<75% viability) are not acceptable for use. Dilute cells with incubation medium to a working cell density of 0.5×10^6 viable cells/mL. e) A portion of the hepatocytes at 0.5×10^6 viable cells/mL was boiled for 5 min prior to adding to the plate as negative control to eliminate the enzymatic activity so that little or no substrate turnover should be observed. The boiled hepatocytes are used to prepare negative control samples, which used to exclude the misleading factor that resulted from instability of chemical itself. Negative control wells are prepared in duplicate.
a) Pipette 198 μL of hepatocytes into each wells of a 96-well non-coated plate. Place the plate in the CO2 incubator at 37° C. on an orbital shaker to allow the hepatocytes to warm for 10 minutes. b) Pipette 2 μL of the 100 μM test compounds or positive control into respective wells of the 96-well plate to start the reaction. c) Return the plate to the incubator and place on an orbital shaker with a shaking speed of 150 rpm. The reaction for each compound will be performed in duplicate.
a) Remove 25 μL aliquots of reaction mixture at time points of 0, 15, 30, 60, 90 and 120 minutes. b) The aliquots are then mixed with 6 volumes (150 μL) of acetonitrile containing internal standards (IS: 100 nM alprazolam, 200 nM labetalol, and 2 μM ketoprofen) to terminate the reaction. Centrifuge the plate for 20 minutes at 3,800 g. Aliquots of 100 μL of the supernatants will be mixed with 100 μL ultrapure water and used for LC/MS/MS analysis.

The target of a further data set is CYP 3A4 (Homo sapiens, UniProt P08684). Briefly: CYP450 inhibition. Format: in vitro ADME. The settings on record: Testosterone.
Chain of CYP 3A4 (P08684 whole entry): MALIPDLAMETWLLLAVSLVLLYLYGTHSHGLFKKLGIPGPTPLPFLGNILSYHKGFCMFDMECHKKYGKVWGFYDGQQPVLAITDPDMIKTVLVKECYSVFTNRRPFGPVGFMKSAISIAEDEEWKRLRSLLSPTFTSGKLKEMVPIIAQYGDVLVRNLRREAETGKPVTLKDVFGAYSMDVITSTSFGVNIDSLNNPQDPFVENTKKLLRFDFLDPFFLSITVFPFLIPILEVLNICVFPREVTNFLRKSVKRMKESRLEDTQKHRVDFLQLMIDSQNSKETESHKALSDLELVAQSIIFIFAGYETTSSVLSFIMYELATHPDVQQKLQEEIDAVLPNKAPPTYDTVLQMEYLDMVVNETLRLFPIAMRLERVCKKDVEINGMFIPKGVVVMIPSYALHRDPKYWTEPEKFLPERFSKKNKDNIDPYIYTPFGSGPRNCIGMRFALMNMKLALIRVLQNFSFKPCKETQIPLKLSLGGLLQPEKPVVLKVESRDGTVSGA

Description for CYP 3A4: Prepare stock solutions of the test compound and positive control compounds described in Table 8 in DMSO at 0, 0.2, 1, 2, 10, 50, 200, 2000 and 10000 μM. Transfer 1 μL of the stock solutions to the Incubation Plate. The final concentrations of test compound or positive control compound are 0, 0.001, 0.005, 0.01, 0.05, 0.25, 1, 10 and 50 μM. All experiments are performed in duplicate.

The term efflux ratio denotes the permeability from basolateral to apical divided by that in the opposite direction, in the common usage. In general, IC50 refers to the midpoint of a concentration-inhibition curve. For the compound `CN(C)C/C=C/C(=O)Nc1cc2c(Nc3cccc(Cl)c3F)ncnc2cc1OCCOC(F)F.O=C(O)/C=C\C(=O)O` [Example I-5-MA, (E)-N-[4-(3-chloro-2-fluoro-anilino)-7-[2-(difluoromethoxy)ethoxy]quinazolin-6-yl]-4-(dimethylamino)but-2-enamide dimaleic acid salt], the efflux ratio at 120 min, 5 µM in the data set on P-gp was 0.48. The “% Remaining @ 120 min” value in the data set on hepatocytes (Dog hepatocytes) was 47.29%; with hepatocytes (Human hepatocytes) it was 82.95%; in the data set on hepatocytes (Monkey hepatocytes), 21.97%; in the data set with hepatocytes (Mouse hepatocytes), 36.27%; in the data set with hepatocytes (Rat hepatocytes), 59.08%. Besides, the midpoint of inhibition against CYP 3A4, the IC50, lay at 42 µM.
